Here are results for one compound from patent publication US20220304992A1, “METHODS OF REJUVENATING AGED TISSUE BY INHIBITING 15-HYDROXYPROSTAGLANDIN DEHYDROGENASE (15-PGDH)” (The Board of Trustees of the Leland Stanford Junior …, priority 2019, published 2022).

Each structure is given as a SMILES string. “Also recorded” adds a separate entry of the source.

Test [1] addresses T1, 15-PGDH (Mus musculus, UniProt Q8VCC1).
T1 construct: 15-PGDH specific enzymatic activity assayed in muscle tissues of vehicle and SW treated aged muscles; from tissue; host or cells: skeletal muscle lysates of aged C57BL/6 mice
In words: 15-PGDH kinetic assay (PicoProbe kit) in muscle lysates of treated mice. Format: in vivo. To be noted: aged mice, daily i.p., 1 month.
Experimental: 15-PGDH activity was analyzed in tissue lysates using the BioVision PicoProbe 15-PGDH Activity Assay Kit (Cat # K562) according to the protocol of the manufacturer. Briefly, tissues were isolated and snap frozen in liquid nitrogen.

Test [2] concerns aged mice. In words: Muscle mass, plantar flexion tetanic force and treadmill endurance in aged and young C57BL/6 mice. Format: in vivo, mouse. To be noted: aged (>24 mo) mice, daily i.p. 5 mg/kg, 1 month, 5 mg/kg.
Excerpt: (§1) We performed all experiments and protocols in compliance with the institutional guidelines of Stanford University and Administrative Panel on Laboratory Animal Care (APLAC). Mid (18 mo.) and aged (>24 mo.) mice C57BL/6 were obtained the US National Institute on Aging (NIA) for aged muscle studies, and young (2-4 mo.) wild-type C57BL/6 mice from Jackson Laboratory. Mice were maintained in specific-pathogen free housing on a 12-hour dark/light cycle for study duration.
(§2) Time and distance to exhaustion was performed as previously described (4) for SW-treated mice and their controls (FIG. 3A).
(§3) The peak isometric torque (N·mm) of the ankle plantarflexors was assessed as previously described (8,9). Briefly, the foot of anesthetized mice was placed on a footplate attached to a servomotor (model 300C-LR; Aurora Scientific). Two Pt-Ir electrode needles (Aurora Scientific) were inserted percutaneously were inserted subcutaneously over the tibial nerve, just posterior/posterior-medial to the knee. The ankle joint was secured at a 90° angle. The peak isometric torque was achieved by varying the current delivered to the tibial nerve at a frequency of 200 Hz and a 0.1-ms square wave pulse. We performed three tetanic measurements on each muscle, with 1 min recovery between each measurement. Data were collected with the Aurora Scientific Dynamic Muscle Data Acquisition and Analysis Software.
(§4) We performed all experiments and protocols in compliance with the institutional guidelines of Stanford University and Administrative Panel on Laboratory Animal Care (APLAC). Middle aged (18-20 mo.) and aged (>24 mo.) mice C57BL/6 were obtained the US National Institute on Aging (NIA) for aged muscle studies, and young (2-4 mo.) wild-type C57BL/6 mice from Jackson Laboratory. INK-ATTAC mice were generated as previously described (1). INK-ATTAC healthspan assessments. INK-ATTAC mice were crossed onto the C57BL6/J genetic background and maintained in specific-pathogen free housing on a 12-hour dark/light cycle for study duration. At 12 months of age, male mice were either utilized for baseline healthspan assessments and terminal muscle harvest or randomized to receive twice-weekly vehicle or AP20187 (2 mg/kg intraperitoneal injection; B/B homodimerizer, Clontech) until assessment and sacrifice at 28 months of age (2). […] Time and distance to exhaustion was performed as previously described (4) for SW-treated mice and their controls. […]
as §3, with “described (21, 22).” for “described (8,9).”, “percutaneously and” for “percutaneously were inserted”, “a 0.1—ms” for “a 0.1-ms”

Experiment in test [3]: as above
It counts as in vivo, mouse. The settings on record: young mice, daily i.p., 1 month.
Excerpt: as §1, §2, §3, §4
as §3, with “described (21, 22).” for “described (8,9).”, “percutaneously and” for “percutaneously were inserted”, “a 0.1—ms” for “a 0.1-ms”

The subject of test [4] is bone marrow, colon, lung, and liver. To be noted: cited from earlier work.

T1 sequence (Q8VCC1 whole entry): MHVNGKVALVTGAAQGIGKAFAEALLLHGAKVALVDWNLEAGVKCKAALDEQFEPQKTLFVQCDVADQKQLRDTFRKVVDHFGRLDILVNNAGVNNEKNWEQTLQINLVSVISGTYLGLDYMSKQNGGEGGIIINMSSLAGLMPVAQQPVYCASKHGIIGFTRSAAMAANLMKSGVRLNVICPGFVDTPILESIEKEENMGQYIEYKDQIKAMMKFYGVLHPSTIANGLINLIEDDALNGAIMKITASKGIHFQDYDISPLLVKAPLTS

In the case of `CCCC[S+]([O-])c1sc2nc(-c3cccs3)cc(-c3ccccc3)c2c1N` (stereo not shown) [SW033291, 2-(butylsulfinyl)-4-phenyl-6-(thiophen-2-yl)thieno[2,3-b]pyridin-3-amine], the “15-PGDH specific activity in muscle” value in test [1] is given as “significantly reduced”. Besides, in test [2], the “endurance (time to exhaustion on a treadmill)” value was “increases; also recorded: significant increase”; the “muscle mass (weight of dissected GA, TA, soleus)” value is reported as “increases; also recorded: significant increase”; the “muscle strength (plantar flexion tetanic force)” value was “increases; also recorded: significant increase”. For the same compound, in test [2] (listed as SW), the “endurance (time to exhaustion on a treadmill)” value is recorded as “increased”; the “muscle mass (weight of dissected GA, TA, soleus)” value is on record as “significant increase”; the “muscle strength (plantar flexion tetanic force)” value was “significant increase”. Also, in test [3], the absolute strength entry is listed as “not statistically significant” and the muscle mass result is on record as “not statistically significant”. In test [4], the “increase of PGE2 levels in vivo” value was 2 fold.
